Results on 13 compounds are retold here after US11884633B2, “Arylazole compound and pest control agent” (Nippon Soda Co., Ltd., priority 2015, dated 2024).

Series [1] has as its system Mythimna separata. Kind of series: Test Example 1: efficacy test on Mythimna separata (artificial diet). In kind it is in vivo. To be noted: 0.8 g artificial diet mixed with 1 μl emulsion (I) (5% active ingredient); second instar larvae; 25° C.; fifth day. On the procedure:
(§1) 5 parts of the compound of the present invention, 93.6 parts of dimethylformamide, and 1.4 parts of polyoxyethylene alkylaryl ether were mixed and dissolved to prepare an emulsion (I) with 5% the active ingredient.
(§2) The insecticidal rate and the control rate were calculated by the following Equation. Insecticidal rate (%)=(number of dead insects/number of test insects)×100 Control rate={1−(Nt)/(Nc)}×100
0.8 g of commercially available artificial diet (Insector LFS, manufactured by Nosan Corp.) and Emulsion (I) 1 μl were well mixed and 0.2 g per each treatment group was packed in a plastic test container (1.4 ml) to prepare test feed. Two Mythimna separata second instar larvae were inoculated into each treatment group and sealed with a plastic lid. The container was placed in a thermostatic chamber at 25° C., and the insecticidal rate and food intake were examined on the fifth day. The test was performed twice. Further, a test conducted under the same conditions except that the compound of the present invention was removed from the emulsion (I) was performed as a vehicle control group.

The subject of series [2] is Plutella xylostella. Kind of series: Test Example 13: efficacy test on Plutella xylostella (soil immersion test). The class given is in vivo. To be noted: 500 ppm, 10 ml soil irrigation of chingengsai seedlings; adults released after 7 days; counted 7 days after release. On the procedure: as §1, §2
Nt: Number of parasites in spray treatment group
Nc: Number of parasites in untreated group
Emulsion (I) was diluted with water such that the concentration of the compound of the present invention was set to be 500 ppm to obtain a test solution. 10 ml of the test solution was irrigated to the stocker at chingengsai seedlings (seventh true leaf development stage) planted in a small pot and placed in a greenhouse at 25° C. for 7 days. Chingengsai seedlings were transferred into glass greenhouse and 300 adults of Plutella xylostella per 50 chingengsai were released in glass greenhouse. When 7 days passed after release, the number of surviving Plutella xylostella infested in Chingengsai seedlings was counted and the control rate was calculated. The test was performed twice.

In series [3] the test system is Rhipicephalus microplus. Kind of series: Test Example 17: contact effect test on Rhipicephalus microplus. To be noted: 100 ppm test solution; larvae; 24 hours after treatment. The class given is in vivo. On the procedure: as §2
A DMSO solution of the compound of the present invention was diluted with water to obtain a test solution at 100 ppm. This drug solution was dropped into a container containing 20 larvae of Rhipicephalus microplus and incubated in a thermostatic chamber at a temperature of 28° C. and a humidity of 80%. The larvae's life and death were determined 24 hours after the drug treatment. The test was performed twice.

Series [4] concerns Aphis gossypii. Kind of series: Test Example 11: efficacy test on Aphis gossypii (rooting treatment test). In kind it is in vivo. To be noted: 8 ppm; hydroponic culture of cucumber seedlings (root treatment); 6 days. On the procedure: as §1, §2
The cucumber seedlings raised in a small pot were drawn out from the small pot, the soil adhering to the root portion was washed off with tap water, and the root portion was dipped in tap water and hydroponically cultivated. Cucumber seedlings were inoculated with Aphis gossypii […]. Emulsion (I) was diluted with water to obtain a diluted solution having a concentration of the compound of the present invention of 8 ppm. The tap water was replaced with the diluent and the hydroponic culture with the diluent was continued in a thermostatic chamber at a temperature of 25° C. and a humidity of 60%. When 6 days passed from the start of hydroponic culture with the diluent, life and death determination on Aphis gossypii was performed and the insecticidal rate was calculated. The test was performed twice.

Series [5] has as its system Ornithodoros moubata. Kind of series: Test Example 16: feeding effect test on Ornithodoros moubata. In kind it is in vivo. To be noted: 10 ppm in defibrin blood of sheep; tritonymphs; 14 days after blood sucking. On the procedure: as §2
A DMSO solution of the compound of the present invention was mixed with the defibrin blood of sheep to obtain a mixed solution of 10 ppm. 2 ml of this mixed solution was placed in a container and capped with a parafilm membrane. In addition, 20 tritonymphs of Ornithodoros moubata were released and allowed to suck the blood through a parafilm membrane for about 30 minutes. The nymphs were transferred to a storage container and incubated in a thermostatic chamber at a temperature of 28° C. and a humidity of 80%, and the life and death and developmental stage were observed 14 days after blood sucking. The test was performed twice.

Series [6] relates to housefly. Kind of series: Test Example 12: efficacy test on housefly. To be noted: 100 ppm on cubic sugar; female adults; 25° C.; 24 hours. The class given is in vivo. How it is done: as §2
The compound of the present invention was diluted with acetone and added dropwise to 1 g of cubic sugar such that the concentration was set to be 100 ppm. The cubic sugar was placed in a plastic cup, and ten housefly female adults were released and capped. After storage at 25° C. and 24 hours passing from releasing, life and death determination was performed and the insecticidal rate was calculated. The test was performed twice.

The test system of series [7] is Lucilia cuprina larvae. Kind of series: Test Example 18: contact/feeding effect test on Lucilia cuprina larvae. To be noted: 1000 ppm in horse meat, 48 hours. In kind it is in vivo. How it is done: as §2
A DMSO solution of the compound of the present invention was mixed with horse meat to obtain a mixture of 1000 ppm. 20 Lucilia cuprina larvae were introduced into the test tube with the mixture. The mixture was incubated in a thermostatic chamber at a temperature of 28° C. and a humidity of 80%, and the larvae's life and death were determined 48 hours after the start of the test. The test was performed twice.

Series [8] concerns Aedes aegypti larvae. Kind of series: Test Example 19: contact/feeding effect test on Aedes aegypti larvae. In kind it is in vivo. To be noted: final concentration 10 ppm; first instar larvae; 48 hours. How it is done: as §2
A DMSO solution of the compound of the present invention was diluted with water to obtain a diluted solution of 100 ppm. 10 Aedes aegypti first instar larvae were placed in each well of a 96-well microtiter plate together with breeding water, 1/10 of 100 ppm diluted solution were added and tested at a final concentration of 10 ppm. The mixture was incubated in a thermostatic chamber at a temperature of 28° C. and a humidity of 80%, and the larvae's life and death were determined for 48 hours after the drug treatment. The test was performed twice.

Bounds are passed on as bounds.

`CCS(=O)(=O)c1cc(C(F)(F)F)ccc1-c1ncc(/C=C/C(F)(F)F)n1C` [1-10]: the “feeding amount in comparison with the vehicle control group” value (“feeding amount in comparison” for short) in series [1] is on record as at most 10%.

In the case of `CCS(=O)(=O)c1ccc(-n2cnc(N)n2)nc1-n1ncc(C=C(Cl)C(F)(F)C(F)(F)F)c1C` [10-10], the “feeding amount in comparison” value in [1] is at most 10%.

For `CCS(=O)(=O)c1cccnc1-n1ncc(C=C(Cl)C(F)(F)F)c1C` (mixture of isomers) [10-3], the “feeding amount in comparison” value in series [1] is given as at most 10%.

With `CCS(=O)(=O)c1cc(C(F)(F)F)ccc1-c1ncc(C=C(Cl)C(F)(F)F)n1C` [1-1, 5-(2-Chloro-3,3,3-trifluoroprop-1-en-1-yl)-2-(2-(ethylsulfonyl)-4-(trifluoromethyl)phenyl)-1-methyl-1H-imidazole], in series [2], the control rate is on record as at least 80%. Besides, the insecticidal rate in series [3] is listed as at least 90%; in [4], at least 80%; in series [5], at least 90%; in series [6], at least 80%; in series [7], at least 90%; in series [8] it was at least 90%.

`CCS(=O)(=O)c1ccc(-n2cncn2)nc1-c1ncc(C=C(Cl)C(F)(F)C(F)(F)F)n1C` [4-10]: in series [1], the “feeding amount in comparison” value is at most 10%.

Regarding `CCSc1cccnc1-n1ncc(C=C(Cl)C(F)(F)C(F)(F)F)c1C` [10-6], in [1], the “feeding amount in comparison” value is at most 10%.

The compound `CCS(=O)(=O)c1cc(C(F)(F)F)ccc1-n1ncc(C(=O)On2nnc3ccccc32)c1C` [15-2] yielded a melting point of 211 to 215 °C.

As for `CCS(=O)(=O)c1cccnc1-n1ncc(C=C(Cl)C(F)(F)C(F)(F)F)c1C` [10-7], in series [1], the “feeding amount in comparison” value is recorded as at most 10%.

As for `CCS(=O)(=O)c1ccc(-n2ncnc2N)nc1-n1ncc(C=C(Cl)C(F)(F)C(F)(F)F)c1C` [10-11], the “feeding amount in comparison” value in series [1] is listed as at most 10%.

In the case of `CCS(=O)(=O)c1ccc(-n2cncn2)nc1-n1ncc(C=C(Cl)C(F)(F)C(F)(F)F)c1C` [10-5], in series [1], the “feeding amount in comparison” value is given as at most 10%.

Turning to `CCSc1cc(C(F)(F)F)ccc1-c1ncc(C(=O)N2CC(F)(F)C(F)(F)C2)n1C` [15-3], the melting point fell in the range of 155 to 156 °C.

On to `CCS(=O)(=O)c1cc(C(F)(F)F)cnc1-n1ncc(C=C(Cl)C(F)(F)F)c1C` (mixture of isomers) [10-2], for which the “feeding amount in comparison” value in series [1] is recorded as at most 10%.

As to `CCS(=O)(=O)c1ccc(-n2cncn2)nc1-n1ncc(C=C(Cl)C(F)(F)F)c1C` (mixture of isomers) [10-4], the “feeding amount in comparison” value in series [1] was at most 10%.

One may read the melting point as the temperature, or range, at which the solid turns liquid.
